pIC50: −log10 of the molar value. Like-named read-outs stand apart in the source and are kept apart here.
Tests used:
293 cells = assay: Cell status of 293 cells treated with sample alone (herpes virus screening); settings: 200 μg/ml, 24 hrs
[1] = test system: SMMC-7721 human hepatic carcinoma; assay: In vitro inhibition rate to tumor cells (MTT), SMMC-7721; assay type: cell-based; settings: for inhibition at 50 µg/mL: Homo sapiens, SMMC-7721, 50 μg/ml, read-out: inhibition rate, Results (%) SMMC-7721; for inhibition rate, Results (%) SMMC-7721: 50 μg/ml
[2] = molecular target: T1, HIV-1 integrase (HIV-1 IN) (Human immunodeficiency virus type 1 group M subtype B, UniProt P04585); assay: Screening for the activity against HIV-1 integrase; assay type: biochemical
T1 construct: a purified HIV-1 integrase was added into each well; purchased
How it was run: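 Purified HIV-1 integrase with plate-bound 30-nt donor oligonucleotide and biotinylated 20-nt target oligonucleotide; samples tested at four 5-fold serial dilutions. Strand-transfer product detected by ELISA with biotin-labeled alkaline phosphatase, read as OD450.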

[3] = test system: HL-60 human promyelocytic leukemia; assay: In vitro anti-tumor IC50 (MTT), HL-60; assay type: cell-based; settings: Homo sapiens, HL-60; Table 4; read-out: IC50 (ug/ml) against tumor cell lines, HL-60
Procedure: (1) Single cell suspension was seeded into 96-well plates (the cells was diluted in the PRMI-1640 minimum medium to 3×10^4 cells/ml, […] diluted cells/well). […] The experiments were performed in quadruplicate.
(2) The medium was removed. Solutions of the anti-tumor agents (50 compounds) were prepared in a freshly prepared medium at serial concentrations. […] of the solution was added into each well. Incubation was continued for 48 hours.
(3) 20 ug of 2 mg/ml MTT was added into each well, and incubated for 4 hours.
(4) The medium was removed from the well. The microplates were swiftly turned down to throw-off the medium. […] of DMSO was added into each well, and vortexed at room temperature for 10 minutes.
(5) OD value (λ=570 nm) was measured with an Enzyme-Linked Detector.
(6) The graph of cell vitality was plotted, and IC50 was calculated.

[4] = test system: Hela human cervical carcinoma; assay: In vitro anti-tumor IC50 (MTT), Hela; assay type: cell-based; settings: Homo sapiens, HeLa; Table 4; read-out: IC50 (ug/ml) against tumor cell lines, Hela
[5] = test system: Bel-7402 human hepatic carcinoma; assay: In vitro inhibition rate to tumor cells (MTT), Bel-7402; assay type: cell-based; settings: for inhibition at 50 µg/mL: Homo sapiens, Bel-7402, 50 μg/ml, read-out: inhibition rate, Results (%) Bel-7402; for inhibition rate, Results (%) Bel-7402: 50 μg/ml
[6] = test system: MCF-7 human mammary adenocarcinoma; assay: In vitro inhibition rate to tumor cells (MTT), MCF-7; assay type: cell-based; settings: for inhibition at 50 µg/mL: Homo sapiens, MCF7, 50 μg/ml, read-out: inhibition rate, Results (%) MCF-7; for inhibition rate, Results (%) MCF-7: 50 μg/ml
[7] = test system: A-549 human lung adenocarcinoma; assay: In vitro inhibition rate to tumor cells (MTT), A-549; assay type: cell-based; settings: for inhibition at 50 µg/mL: Homo sapiens, A549, 50 μg/ml, read-out: inhibition rate, Results (%) A-549; for inhibition rate, Results (%) A-549: 50 μg/ml
[8] = test system: U-937 human histocytic lymphoma; assay: In vitro inhibition rate to tumor cells (MTT), U-937; assay type: cell-based; settings: Homo sapiens, U-937, 50 μg/ml, read-out: inhibition rate, Results (%) U-937
[9] = test system: LLC mouse Lewis lung carcinoma; assay: In vitro inhibition rate to tumor cells (MTT), LLC; assay type: cell-based; settings: 50 μg/ml; for inhibition at 50 µg/mL: Mus musculus, Lewis lung carcinoma
[10] = test system: Hela human cervical carcinoma; assay: In vitro inhibition rate to tumor cells (MTT), Hela; assay type: cell-based; settings: Homo sapiens, HeLa, 50 μg/ml, read-out: inhibition rate, Results (%) Hela
[11] = test system: U-937 human histocytic lymphoma; assay: In vitro anti-tumor IC50 (MTT), U-937; assay type: cell-based; settings: Homo sapiens, U-937; Table 4; read-out: IC50 (ug/ml) against tumor cell lines, U-937
[12] = molecular target: T2, HIV-1 proteinase (HIV-1 PR) (Human immunodeficiency virus type 1 group M subtype B, UniProt P04585); assay: Screening for in vitro activity against HIV-1 proteinase; assay type: biochemical; settings: for inhibition at 0.08 µg/mL: 0.08 μg/ml; for inhibition at 0.08 µg/mL / inhibition at 0.4 µg/mL / inhibition at 2 µg/mL / inhibition at 10 µg/mL: read-out: Inhibition rate; for inhibition at 0.4 µg/mL: 0.40 μg/ml; for inhibition at 2 µg/mL: 2.0 μg/ml; for inhibition at 10 µg/mL: 10 μg/ml; for pIC50: IC50, five 5× serial dilutions from 50 μg/ml
T2 construct: HIV-1 proteinase digests the fluorescent-labeled substrate; purchased
How it was run: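 Recombinant HIV-1 PR cleaves a fluorescent-labeled substrate in reaction buffer. Samples were dissolved in DMSO and serially diluted 5-fold in water (five dilutions), then added before the enzyme. Fluorescence of the product was read after incubation; indinavir was the positive control.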

SMILES | Cytopathy and cell status, Sample (293 cells) | IC50 [3] | IC50 [4] | inhibition at 50 µg/mL ([5]; Table 1) | inhibition at 50 µg/mL ([7]; Table 2 (repeated screening)) | inhibition at 50 µg/mL ([8]; Table 1) | inhibition at 50 µg/mL ([8]; Table 2 (repeated screening)) | inhibition at 50 µg/mL ([9]; Table 1) | inhibition at 50 µg/mL ([10]; Table 1) | inhibition at 50 µg/mL ([10]; Table 2 (repeated screening)) | IC50 [11] | inhibition at 0.08 µg/mL [12] | inhibition at 0.4 µg/mL [12] | inhibition at 2 µg/mL [12] | inhibition at 10 µg/mL [12] | pIC50 [12] | other results
CC(C)C1CC23OC1(O)CC(=CBr)C2CCC3C (stereo not drawn) [Compound 17, Curcumol monobromide] | Good | 1.85 µg/mL | 1.5 µg/mL | -12.4% | 5.23% | 87.2% | 85.1% | 7.27% | 91.6% | 92.4% | 0.92 µg/mL | 3.78% | 10.7% | -6% | 6.15% | < 3.80 | inhibition at 50 µg/mL ([1]; Table 1): 10.2%; inhibition at 50 µg/mL ([1]; Table 2 (repeated screening)): 0.32%; inhibition at 100 µg/mL ([2]; initial concentration 100 μg/ml, read-out: IC50): < 50%; inhibition at 50 µg/mL ([5]; Table 2 (repeated screening)): -10.9%; inhibition at 50 µg/mL ([6]; Table 1): 53.9%; inhibition at 50 µg/mL ([6]; Table 2 (repeated screening)): 50.3%; inhibition at 50 µg/mL ([7]; Table 1): 4.68%; inhibition at 50 µg/mL ([9]; Table 2 (repeated screening)): 2.31%; inhibition at 50 µg/mL ([12]; read-out: Inhibition rate, 50 μg/ml): 9.94%
C=C1CC2(OS(=O)(=O)O)OC3(CC2C(C)C)C(C)CCC13 (stereo not drawn) [Compound 20, Curcumol sulfonate] | Good | 0.45 µg/mL | 0.89 µg/mL | 7.89% | 13% | 89.2% | 90.3% | 8.97% | 94.2% | 90.6% | 0.95 µg/mL | 8.76% | 7.44% | 10.6% | 9.46% | < 3.80 | inhibition rate, Results (%) SMMC-7721 ([1]; Table 1): 18.08%; inhibition rate, Results (%) SMMC-7721 ([1]; Table 2 (repeated screening)): 1.23%; inhibition rate, Results (%) SMMC-7721 ([1]; Table 3 (repeated screening)): 6.56%; pIC50 [2]: 3.90; inhibition rate, Results (%) Bel-7402 ([5]; Table 2 (repeated screening)): 5.36%; inhibition rate, Results (%) Bel-7402 ([5]; Table 3 (repeated screening)): 1.23%; inhibition rate, Results (%) MCF-7 ([6]; Table 1): 18.9%; inhibition rate, Results (%) MCF-7 ([6]; Table 2 (repeated screening)): 16.32%; inhibition rate, Results (%) MCF-7 ([6]; Table 3 (repeated screening)): 14.23%; inhibition rate, Results (%) A-549 ([7]; Table 1): 12.50%; inhibition rate, Results (%) A-549 ([7]; Table 3 (repeated screening)): 14.32%; inhibition at 50 µg/mL ([8]; Table 3 (repeated screening)): 90%; inhibition rate, Results (%) LLC ([9]; Table 2 (repeated screening)): 9.37%; inhibition rate, Results (%) LLC ([9]; Table 3 (repeated screening)): 15.32%; inhibition at 50 µg/mL ([10]; Table 3 (repeated screening)): 92.5%; Inhibition rate ([12]; 50 μg/ml): 12.68

Source: patent US7700584B2 (Hangzhou Minsheng Pharmaceuticals Co., Ltd., priority 2004, dated 2010)
